In general, IC50 refers to the point on the concentration scale where inhibition reaches its midpoint.

We go through 47 compounds from PubChem BioAssay AID652130 (The Scripps Research Institute Molecular Screening Center, 2013).

Activity calls are given as the source filed them. No rule for the calls is given here. Where only a bound is given, the exact number is not on record here.

For the test, the target named is Perilipin-5 (Homo sapiens) + 1-acylglycerol-3-phosphate O-acyltransferase ABHD5 (Homo sapiens) (UniProt Q00G26+Q8WTS1). The test is described as follows: PubChem AID 652130. As to conditions: ABHD5/PLIN5 interaction, luminescence, HEK293T-produced proteins.
Chain of Perilipin-5 (Homo sapiens) + 1-acylglycerol-3-phosphate O-acyltransferase ABHD5 (Homo sapiens) (Q00G26 whole entry, looked up): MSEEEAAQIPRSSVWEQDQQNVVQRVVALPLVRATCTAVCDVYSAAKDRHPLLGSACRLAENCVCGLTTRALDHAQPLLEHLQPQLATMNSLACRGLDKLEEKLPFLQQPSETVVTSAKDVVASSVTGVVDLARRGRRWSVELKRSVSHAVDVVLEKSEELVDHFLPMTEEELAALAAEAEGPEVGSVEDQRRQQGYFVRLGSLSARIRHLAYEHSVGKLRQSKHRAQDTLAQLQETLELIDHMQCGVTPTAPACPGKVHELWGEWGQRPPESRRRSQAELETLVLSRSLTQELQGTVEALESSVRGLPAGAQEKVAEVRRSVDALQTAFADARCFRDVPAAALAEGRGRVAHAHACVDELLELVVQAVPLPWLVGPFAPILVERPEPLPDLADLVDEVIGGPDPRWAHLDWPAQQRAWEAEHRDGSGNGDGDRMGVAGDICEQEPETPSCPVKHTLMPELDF
Chain of Perilipin-5 (Homo sapiens) + 1-acylglycerol-3-phosphate O-acyltransferase ABHD5 (Homo sapiens) (Q8WTS1 whole entry, looked up): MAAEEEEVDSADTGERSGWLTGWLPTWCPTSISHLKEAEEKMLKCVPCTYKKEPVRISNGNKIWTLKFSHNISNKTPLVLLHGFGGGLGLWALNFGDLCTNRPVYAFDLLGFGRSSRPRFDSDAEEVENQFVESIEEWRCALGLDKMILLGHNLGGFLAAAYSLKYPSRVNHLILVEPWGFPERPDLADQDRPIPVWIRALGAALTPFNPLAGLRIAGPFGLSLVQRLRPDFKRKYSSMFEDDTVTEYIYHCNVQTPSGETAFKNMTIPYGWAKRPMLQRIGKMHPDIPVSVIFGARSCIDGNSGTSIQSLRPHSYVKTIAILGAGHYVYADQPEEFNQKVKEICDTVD

For the compound `O=C(Cc1cccc(F)c1)N1CCN(S(=O)(=O)c2ccc3c(c2)OCCO3)CC1`, the IC50 was > 39.8 µM (inactive).
For the compound `CS(=O)(=O)c1ncc(Cl)c(C(=O)Nc2ccc(C(F)(F)F)cc2)n1`, the half-maximal inhibitory concentration (IC50) is 1.62 µM.
On to `CC(C)N1C(=O)c2ccccc2Oc2ccc(NC(=O)c3ccccc3)cc21`, for which the IC50 is > 39.8 µM (inactive).
The result for `CN1C(=O)c2ccccc2Oc2ccc(NC(=O)c3cccs3)cc21` reads > 39.8 µM (inactive).
The result for `CN1C(=O)c2ccccc2Sc2ccc(NC(=O)NCCc3cccs3)cc21` reads 5.6 µM; that for `CCCS(=O)(=O)c1ccc(Cl)c(C(=O)Nc2ccc(C(=O)OCC)cc2)c1`, 6.17 µM; that for `CCS(=O)(=O)c1ncc(Cl)c(C(=O)Nc2ccc(C)cc2)n1`, 4.23 µM.
Regarding `NS(=O)(=O)c1ccc(NC(=O)c2nc(S(=O)(=O)Cc3ccccc3)ncc2Cl)cc1`, the half-inhibitory concentration (IC50) is 4.68 µM.
As to `CN1C(=O)c2ccccc2Sc2ccc(NC(=O)NCCc3ccccc3)cc21`, the IC50 is 4.37 µM.
Turning to `CCCNC(=O)Nc1ccc2c(c1)N(CC)C(=O)c1ccccc1S2`, the IC50 entry was “inactive”.
As for `CN(C)CCCN(C(=O)c1cc2ccccc2oc1=O)c1nc2ccc(Cl)cc2s1`, the IC50 is > 39.8 µM (inactive).
Take `O=C(Nc1ccc2ccccc2c1)c1nc(S(=O)(=O)Cc2ccccc2)ncc1Cl`: the IC50 is 2.36 µM.
Turning to `CC(NC(=O)CN1CCN(S(=O)(=O)c2ccc3c(c2)OCCCO3)CC1)c1cc2ccccc2o1` (configuration not stated), the IC50 is > 39.8 µM (inactive).
With `Cc1ccc(CS(=O)(=O)c2ncc(Cl)c(C(=O)NCc3ccc4c(c3)OCO4)n2)cc1`, the 50% inhibitory concentration (IC50) was 3.36 µM.
With `COc1ccc(OCC(=O)Nc2ccc3c(c2)N(C(C)C)C(=O)c2ccccc2O3)cc1`, the IC50 is > 39.8 µM (inactive).
The result for `CN(C)CCCN(C(=O)Cc1ccc(F)cc1)c1nc2ccc(Cl)cc2s1` reads > 39.8 µM (inactive).
For `CN(C)CCCN(C(=O)C1CCCCC1)c1nc2cc(Br)ccc2s1`, the IC50 was > 39.8 µM (inactive).
As for `Cc1ccc(CS(=O)(=O)c2ncc(Cl)c(C(=O)Nc3nnc(C(C)C)s3)n2)cc1`, the IC50 is > 39.8 µM (inactive).
The result for `COc1ccc(CCNC(=O)c2nc(S(=O)(=O)Cc3ccc(F)cc3)ncc2Cl)cc1OC` reads 2.82 µM.
As for `O=C(CCc1c[nH]c2ccccc12)N1CCN(S(=O)(=O)c2ccc3c(c2)OCCO3)CC1`, the IC50 is > 39.8 µM (inactive).
Turning to `CCS(=O)(=O)c1ncc(Cl)c(C(=O)Nc2ccc(S(N)(=O)=O)cc2)n1`, the half-inhibitory concentration (IC50) is 8.4 µM.
The result for `CN(C)CCCN(C(=O)C1CCCCC1)c1nc2cc(Cl)ccc2s1` reads > 39.8 µM (inactive).
The result for `CCCCCNC(=O)Nc1ccc2c(c1)Sc1ccccc1C(=O)N2C` reads > 39.8 µM (inactive); that for `O=C(CCn1cnc2ccccc21)N1CCN(S(=O)(=O)c2ccc3c(c2)OCCO3)CC1`, > 39.8 µM (inactive); that for `Cc1ccc2c(CC(=O)N3CCN(S(=O)(=O)c4ccc5c(c4)OCCCO5)CC3)coc2c1C`, 4.85 µM.
The result for `COc1ccc(CC(=O)N2CCCN(S(=O)(=O)c3ccc(C)cc3)CC2)cc1OC` reads > 39.8 µM (inactive); that for `CCCC(=O)N(CCCN1CCOCC1)c1nc2ccc(Cl)cc2s1`, > 39.8 µM (inactive).
With `Cc1ccc(CS(=O)(=O)c2ncc(Cl)c(C(=O)Nc3cccc4ccccc34)n2)cc1`, the concentration for half-maximal inhibition (IC50) was 2.7 µM.
The result for `CN(C)CCCN(C(=O)CCc1ccccc1)c1nc2ccc(Cl)cc2s1` reads > 39.8 µM (inactive).
The result for `CN1C(=O)c2ccccc2Sc2ccc(NC(=O)NCCCc3ccccc3)cc21` reads 1.99 µM; that for `CCCCCCNC(=O)Nc1ccc2c(c1)Sc1ccccc1C(=O)N2C`, > 39.8 µM (inactive); that for `CCCCCCCNC(=O)Nc1ccc2c(c1)Sc1ccccc1C(=O)N2C`, “inactive”.
The result for `CN1C(=O)c2ccccc2Oc2ccc(NC(=O)c3cc4ccccc4[nH]3)cc21` reads > 39.8 µM (inactive).
As to `Cc1ccc(CS(=O)(=O)c2ncc(Cl)c(C(=O)Nc3cccc(C(F)(F)F)c3)n2)cc1`, the half-inhibitory concentration (IC50) was 2.46 µM.
Take `Cc1ccc(CS(=O)(=O)c2ncc(Cl)c(C(=O)N3CCN(C)CC3)n2)cc1`: the IC50 was 5.9 µM.
As for `CN(C(=O)c1nc(S(C)(=O)=O)ncc1Cl)c1ccccc1`, the half-maximal inhibitory concentration (IC50) was 3.65 µM.
The result for `CCCS(=O)(=O)c1ncc(Cl)c(C(=O)Nc2ccc(C(=O)OC)cc2)n1` reads 6.37 µM.
The result for `Cc1ccc2cc(CC(=O)N3CCN(S(=O)(=O)c4ccc5c(c4)OCCO5)CC3)oc2c1` reads “inactive”; that for `O=C(C1COc2ccccc2O1)N1CCN(S(=O)(=O)c2ccc3c(c2)OCCO3)CC1` (configuration not stated), > 39.8 µM (inactive); that for `COc1ccc(CC(=O)N2CCN(S(=O)(=O)c3ccc4c(c3)OCCCO4)CC2)cc1`, > 39.8 µM (inactive).
The result for `Cc1ccc(NC(=O)c2nc(S(C)(=O)=O)ncc2Cl)cc1` reads 3.83 µM; that for `CCCC(=O)Nc1ccc2c(c1)C(=O)N(C)c1ccccc1O2`, > 39.8 µM (inactive).
Regarding `CCCC(=O)Nc1ccc2c(c1)C(=O)N(C)c1cc(C)ccc1O2`, the IC50 was > 39.8 µM (inactive).
With `O=C(c1nc(S(=O)(=O)Cc2ccccc2)ncc1Cl)N(Cc1ccccc1)Cc1ccco1`, the half-maximal inhibitory concentration (IC50) is 1.76 µM.
With `O=C(CCc1nc2ccccc2s1)N1CCN(S(=O)(=O)c2ccc3c(c2)OCCO3)CC1`, the IC50 entry was “inactive”.
As for `CCc1ccc2c(CC(=O)N3CCN(S(=O)(=O)c4ccc5c(c4)OCCO5)CC3)coc2c1`, the half-inhibitory concentration (IC50) is 3.46 µM.
In the case of `O=C(Cc1ccc2c(c1)CCCC2)N1CCN(S(=O)(=O)c2ccc3c(c2)OCCO3)CC1`, the IC50 entry was “inactive”.
